# Test results: PMC12892976, “Alkylation-based optimization of antifungal FPPS inhibitors yields a potent, broad-spectrum lipophilic zoledronate derivative” (mBio, 2025)
# Read-outs that look alike come from different tables or passages of the source.
# Legend:
# Candida albicans [1] = test: MIC/MFC broth microdilution (CLSI); assay type: cell-based; conditions: Candida albicans SC5314
# Method: (§1) Antifungal susceptibility was determined by broth microdilution according to the CLSI guidelines described in M27-Ed4 ([16]). […] MFC was determined by back-plating drug-treated cultures from MIC broths onto SDA plates. The MFC was defined as the lowest concentration from which no colonies could be cultured.
# HEK-293T cells = test: MTT reduction cytotoxicity assay; assay type: cell-based; conditions: Homo sapiens, HEK-293T, 72 h, MTT, 72 h
# Aspergillus flavus = test: checkerboard drug interaction (FICI, MICc);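 also: simplified diagonal checkerboard screen pairing azole antifungals with FPPS inhibitors, FICI calculated under the Loewe additivity model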; assay type: cell-based; design: INH MICc (KET:INH) / INH MICc (FLC:INH): unit not given beside the values; conditions: A. flavus
# Trichophyton rubrum = test: MIC/MFC broth microdilution (CLSI); conditions: Trichophyton rubrum
# Method: as §1
# Cryptococcus neoformans = test: MIC/MFC broth microdilution (CLSI); conditions: Cryptococcus neoformans;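 also: susceptibility testing followed the CLSI M27-Ed4 broth microdilution document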
# Method: as §1
# Saccharomyces cerevisiae = test: MIC/MFC broth microdilution (CLSI); assay type: cell-based; conditions: Saccharomyces cerevisiae S288c
# Method: as §1
# Candida glabrata [2] = test: checkerboard drug interaction (FICI, MICc);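 as to all read-outs here: simplified diagonal checkerboard screen pairing antifungals with FPPS inhibitors, FICI calculated under the Loewe additivity model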; assay type: cell-based; conditions: C. glabrata; for INH FD (MIC-MICc fold decrease): fold decrease of inhibitor MIC
# Method: (§2) Drug interactions between antifungals and FPPS inhibitors were investigated using a simplified checkerboard diagonal screening method ([45]). […] FICIs were determined according to the Loewe additivity model ([17]).
# Candida glabrata [3] = test: MIC/MFC broth microdilution (CLSI); conditions: Nakaseomyces glabratus, CBS138;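 also: broth microdilution following CLSI M27-Ed4, MFC taken as the lowest drug level yielding no growth once MIC wells were subcultured on SDA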
# Method: as §1
# [4] = test system: Cryptococcus deuterogattii; test: checkerboard drug interaction (FICI, MICc);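 as to all read-outs here: simplified diagonal checkerboard screen pairing antifungal drugs with FPPS inhibitors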; assay type: cell-based; conditions: C. deuterogattii; for INH FD (MIC-MICc fold decrease): fold decrease of inhibitor MIC
# Method: as §2
# Candida albicans [5] = test: checkerboard drug interaction (FICI, MICc);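 as to all read-outs here: antifungal plus FPPS inhibitor combinations on Candida albicans tested by a simplified diagonal checkerboard screen, with FICI calculated under the Loewe additivity model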; assay type: cell-based; conditions: C. albicans; for INH FD (MIC-MICc fold decrease): fold decrease of inhibitor MIC
# Method: as §2
# [6] = FLC:INH combination, MIC of the inhibitor in combination with FLC
# [7] = FLC:INH combination, fold decrease of FLC MIC
# [8] = ITR:INH combination, MIC of the inhibitor in combination with ITR
# [9] = ITR:INH combination, fold decrease of ITR MIC
# [10] = KET:INH combination, MIC of the inhibitor in combination with KET
# [11] = KET:INH combination, fold decrease of KET MIC
smiles,measurement,setting,value
CCCCCCCCCCCCN1CCC[C@H]1C(=O)N[C@H](CC(=O)OC)C(=O)OC [dmPDA12],MIC,Candida albicans [1],> 128 µg/mL
same,IC50,"HEK-293T cells; HEK-293T cells, read-out: IC50",0.161 µg/mL
same,IC50,HEK-293T cells; read-out: HEK IC50,0.161 µg/mL
same,FICI (FLC:INH),"Aspergillus flavus; Fractional Inhibitory Concentration Index, fluconazole + inhibitor",1.5
same,FICI (ITR:INH),"Aspergillus flavus; Fractional Inhibitory Concentration Index, itraconazole + inhibitor",0.28
same,FICI (KET:INH),"Aspergillus flavus; Fractional Inhibitory Concentration Index, ketoconazole + inhibitor",0.27
same,INH MICc (FLC:INH),Aspergillus flavus; MIC of the inhibitor in combination with fluconazole,128
same,INH MICc (ITR:INH),Aspergillus flavus; MIC of the inhibitor in combination with itraconazole,8
same,INH MICc (KET:INH),Aspergillus flavus; MIC of the inhibitor in combination with ketoconazole,4
same,FLC FD (FLC:INH),"Aspergillus flavus; MIC-MICc fold decrease of fluconazole, negative = increase",1
same,ITR FD (ITR:INH),"Aspergillus flavus; MIC-MICc fold decrease of itraconazole, negative = increase",4
same,KET FD (KET:INH),"Aspergillus flavus; MIC-MICc fold decrease of ketoconazole, negative = increase",4
same,INH FD (FLC:INH),"Aspergillus flavus; MIC-MICc fold decrease of the inhibitor, with fluconazole",2
same,INH FD (ITR:INH),"Aspergillus flavus; MIC-MICc fold decrease of the inhibitor, with itraconazole",32
same,INH FD (KET:INH),"Aspergillus flavus; MIC-MICc fold decrease of the inhibitor, with ketoconazole",64
same,MFC,Trichophyton rubrum,> 128 µg/mL
same,MIC,Trichophyton rubrum,8 µg/mL
same,MFC,Cryptococcus neoformans,32 µg/mL
same,MIC,Cryptococcus neoformans,8 µg/mL
same,MFC,Saccharomyces cerevisiae,> 128 µg/mL
same,MIC,Saccharomyces cerevisiae,64 µg/mL
same,FICI,Candida glabrata [2]; FLC:INH combination,2.5
same,INH MICc,Candida glabrata [2]; [6],8
same,FLC FD (MIC-MICc fold decrease),Candida glabrata [2]; [7],2
same,INH FD (MIC-MICc fold decrease),Candida glabrata [2]; FLC:INH combination,1
same,FICI,Candida glabrata [2]; ITR:INH combination,1.5
same,INH MICc,Candida glabrata [2]; [8],4
same,ITR FD (MIC-MICc fold decrease),Candida glabrata [2]; [9],2
same,INH FD (MIC-MICc fold decrease),Candida glabrata [2]; ITR:INH combination,2
same,FICI,Candida glabrata [2]; KET:INH combination,0.38
same,INH MICc,Candida glabrata [2]; [10],1
same,KET FD (MIC-MICc fold decrease),Candida glabrata [2]; [11],8
same,INH FD (MIC-MICc fold decrease),Candida glabrata [2]; KET:INH combination,8
same,MFC,Candida glabrata [3],128 µg/mL
same,MIC,Candida glabrata [3],128 µg/mL
same,FICI,[4]; FLC:INH combination,2
same,INH MICc,[4]; [6],64
same,FLC FD (MIC-MICc fold decrease),[4]; [7],1
same,INH FD (MIC-MICc fold decrease),[4]; FLC:INH combination,1
same,FICI,[4]; ITR:INH combination,0.38
same,INH MICc,[4]; [8],8
same,ITR FD (MIC-MICc fold decrease),[4]; [9],4
same,INH FD (MIC-MICc fold decrease),[4]; ITR:INH combination,8
same,FICI,[4]; KET:INH combination,0.16
same,INH MICc,[4]; [10],8
same,KET FD (MIC-MICc fold decrease),[4]; [11],32
same,INH FD (MIC-MICc fold decrease),[4]; KET:INH combination,8
same,FICI,Candida albicans [5]; FLC:INH combination,1.06
same,INH MICc,Candida albicans [5]; [6],8
same,FLC FD (MIC-MICc fold decrease),Candida albicans [5]; [7],1
same,INH FD (MIC-MICc fold decrease),Candida albicans [5]; FLC:INH combination,16
same,FICI,Candida albicans [5]; ITR:INH combination,0.53
same,INH MICc,Candida albicans [5]; [8],4
same,ITR FD (MIC-MICc fold decrease),Candida albicans [5]; [9],2
same,INH FD (MIC-MICc fold decrease),Candida albicans [5]; ITR:INH combination,32
same,FICI,Candida albicans [5]; KET:INH combination,0.53
same,INH MICc,Candida albicans [5]; [10],4
same,KET FD (MIC-MICc fold decrease),Candida albicans [5]; [11],2
same,INH FD (MIC-MICc fold decrease),Candida albicans [5]; KET:INH combination,32
